Assay results taken from patent US20240246992A1, “MACROCYCLIC LRRK2 KINASE INHIBITORS” (LES LABORATOIRES SERVIER, priority 2021, published 2024).

Target: human recombinant LRRK2 protein (Homo sapiens, UniProt Q5S007)
Test: LRRK2 kinase activity assay (ADP-Glo, LRRKtide peptide)
Assay type: biochemical
Conditions: human recombinant LRRK2 wt, LRRKtide peptide and ATP, 1 h at 37° C.
Summary of the method: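 Human recombinant LRRK2 reacted with LRRKtide peptide and ATP for 1 h at 37 °C in the presence of compound. ADP formed measured by ADP-Glo luminescence; IC50 fitted from 10 concentrations run in duplicate.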

Sequence of human recombinant LRRK2 protein (Q5S007 whole entry): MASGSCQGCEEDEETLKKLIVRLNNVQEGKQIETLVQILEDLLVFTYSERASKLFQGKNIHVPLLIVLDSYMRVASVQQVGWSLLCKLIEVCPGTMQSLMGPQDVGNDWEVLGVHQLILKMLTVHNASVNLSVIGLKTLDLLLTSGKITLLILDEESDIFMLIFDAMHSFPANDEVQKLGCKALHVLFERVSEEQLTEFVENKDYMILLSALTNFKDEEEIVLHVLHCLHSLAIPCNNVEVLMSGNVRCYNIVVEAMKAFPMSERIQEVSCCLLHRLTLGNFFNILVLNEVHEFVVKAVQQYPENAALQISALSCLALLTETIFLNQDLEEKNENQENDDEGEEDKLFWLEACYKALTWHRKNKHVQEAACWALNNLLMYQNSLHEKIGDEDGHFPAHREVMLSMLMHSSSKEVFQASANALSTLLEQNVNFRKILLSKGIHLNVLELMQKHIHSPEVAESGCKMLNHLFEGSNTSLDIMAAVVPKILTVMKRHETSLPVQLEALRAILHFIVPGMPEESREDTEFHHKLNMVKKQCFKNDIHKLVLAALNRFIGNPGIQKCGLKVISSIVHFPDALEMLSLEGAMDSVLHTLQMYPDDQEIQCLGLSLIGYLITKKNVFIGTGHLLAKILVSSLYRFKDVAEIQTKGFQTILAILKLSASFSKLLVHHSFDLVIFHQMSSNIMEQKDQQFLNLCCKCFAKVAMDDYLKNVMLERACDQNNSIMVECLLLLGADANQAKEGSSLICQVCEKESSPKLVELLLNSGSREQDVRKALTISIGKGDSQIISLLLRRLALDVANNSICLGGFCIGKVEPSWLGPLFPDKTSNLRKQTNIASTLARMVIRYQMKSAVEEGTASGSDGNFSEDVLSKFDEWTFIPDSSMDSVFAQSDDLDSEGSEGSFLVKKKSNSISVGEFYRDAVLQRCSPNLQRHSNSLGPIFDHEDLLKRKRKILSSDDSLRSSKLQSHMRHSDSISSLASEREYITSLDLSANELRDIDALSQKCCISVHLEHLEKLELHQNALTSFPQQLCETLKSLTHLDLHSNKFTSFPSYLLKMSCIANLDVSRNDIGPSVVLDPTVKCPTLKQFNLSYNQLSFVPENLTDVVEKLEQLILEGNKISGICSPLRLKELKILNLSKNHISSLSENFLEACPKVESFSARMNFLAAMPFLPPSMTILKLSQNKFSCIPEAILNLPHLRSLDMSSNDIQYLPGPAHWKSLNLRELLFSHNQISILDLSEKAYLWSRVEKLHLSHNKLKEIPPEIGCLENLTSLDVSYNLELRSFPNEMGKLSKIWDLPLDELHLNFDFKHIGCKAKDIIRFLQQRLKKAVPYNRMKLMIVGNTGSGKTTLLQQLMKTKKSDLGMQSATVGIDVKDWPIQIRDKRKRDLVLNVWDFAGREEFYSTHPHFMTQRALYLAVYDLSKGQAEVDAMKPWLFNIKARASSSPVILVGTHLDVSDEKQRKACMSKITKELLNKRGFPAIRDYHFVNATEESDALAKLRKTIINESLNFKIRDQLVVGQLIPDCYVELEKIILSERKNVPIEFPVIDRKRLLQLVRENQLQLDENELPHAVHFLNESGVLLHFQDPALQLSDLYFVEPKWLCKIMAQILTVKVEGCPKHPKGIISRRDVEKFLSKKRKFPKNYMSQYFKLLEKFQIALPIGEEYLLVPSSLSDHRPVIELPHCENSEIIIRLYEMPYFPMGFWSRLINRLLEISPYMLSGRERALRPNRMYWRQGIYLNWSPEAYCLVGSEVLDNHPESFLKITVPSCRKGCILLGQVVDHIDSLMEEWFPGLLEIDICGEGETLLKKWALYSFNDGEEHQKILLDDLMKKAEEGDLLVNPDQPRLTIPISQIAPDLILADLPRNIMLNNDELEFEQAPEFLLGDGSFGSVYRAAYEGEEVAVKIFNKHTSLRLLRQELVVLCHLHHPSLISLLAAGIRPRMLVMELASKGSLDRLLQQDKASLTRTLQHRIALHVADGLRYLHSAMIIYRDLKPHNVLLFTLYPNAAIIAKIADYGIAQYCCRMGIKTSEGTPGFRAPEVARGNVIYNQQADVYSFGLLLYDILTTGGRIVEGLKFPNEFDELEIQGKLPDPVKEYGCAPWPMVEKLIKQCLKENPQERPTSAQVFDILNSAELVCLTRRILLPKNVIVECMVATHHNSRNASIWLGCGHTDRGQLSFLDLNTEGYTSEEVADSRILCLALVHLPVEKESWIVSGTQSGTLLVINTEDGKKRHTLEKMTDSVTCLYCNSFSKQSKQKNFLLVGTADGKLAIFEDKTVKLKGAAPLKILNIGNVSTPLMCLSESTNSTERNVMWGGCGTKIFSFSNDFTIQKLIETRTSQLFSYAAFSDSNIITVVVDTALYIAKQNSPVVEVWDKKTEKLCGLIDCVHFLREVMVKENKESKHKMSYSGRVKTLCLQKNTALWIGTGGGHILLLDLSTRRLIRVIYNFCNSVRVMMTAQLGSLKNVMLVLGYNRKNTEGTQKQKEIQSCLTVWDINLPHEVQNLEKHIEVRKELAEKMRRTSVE

Row | Structure (SMILES) | IC50 [nM]
1 | O=C1COc2cccc(c2)-c2n[nH]c3ccc(cc23)OCCCN1 [Example 134, 7,14-dioxa-10,19,20-triazatetracyclo[13.5.2.1^2,6.0^18,21]tricosa-1(20),2(23), 3,5,15(22),16,18(21)-heptaen-9-one] | < 100
2 | O=C1COc2cc(ccc2F)-c2n[nH]c3ccc(cc23)OCCCN1 [Example 138, 5-fluoro-7,14-dioxa-10,19,20-triazatetracyclo[13.5.2.1^2,6.0^18,21]tricosa-1(20),2,4,6(23),15,17,21-heptaen-9-one] | < 100
3 | O=C1COc2cccc(c2)-c2n[nH]c3ccc(cc23)OCCC(CF)N1 (stereo not shown) [Example 154, 11-(fluoromethyl)-7,14-dioxa-10,19,20-triazatetracyclo [13.5.2.1^2,6.0^18,21]tricosa-1(20),2,4,6(23),15,17,21-heptaen-9-one] | < 100
4 | FCC1CCOc2ccc3[nH]nc(c3c2)-c2cccc(c2)OCCN1 (stereo not shown) [Example 155, 11-(fluoromethyl)-7,14-dioxa-10,19,20-triazatetracyclo [13.5.2.1^2,6.0^18,21]tricosa-1(20),2,4,6(23),15,17,21-heptaene] | < 100
5 | O=C1NCCCOc2ccc3[nH]nc(c3c2)-c2cncc(c2)OC12CC2 [Example 156, 7′,14′-dioxa-4′,10′,19′,20′-tetraazaspiro[cyclopropane-1,8′-tetracyclo[13.5.2.1^2,6.0^18,21]tricosane]-1′(20′),2′(23′),3′,5′,15′,17′,21′-heptaen-9′-one] | < 100
6 | CC1CCNC(=O)COc2cncc(c2)-c2n[nH]c3ccc(cc23)O1 (stereo not shown) [Example 158, 13-methyl-7,14-dioxa-4,10,19,20-tetraazatetracyclo[13.5.2.1^2,6.0^18,21]tricosa-1(20),2,4,6(23),15,17,21-heptaen-9-one] | < 100
7 | CC1CCNCCOc2cncc(c2)-c2n[nH]c3ccc(cc23)O1 (stereo not shown) [Example 159, 13-methyl-7,14-dioxa-4,10,19,20-tetraazatetracyclo[13.5.2.1^2,6.0^18,21]tricosa-1(20),2,4,6(23),15,17,21-heptaene] | < 10
8 | CC1Oc2cncc(c2)-c2n[nH]c3ccc(cc23)OCCCN(C)C1=O (stereo not shown) [Example 160, 8,10-dimethyl-7,14-dioxa-4,10,19,20-tetraazatetracyclo [13.5.2.1^2,6.0^18,21]tricosa-1(20),2,4,6(23),15,17,21-heptaen-9-one] | < 100
9 | CC1CN(C)CCCOc2ccc3[nH]nc(c3c2)-c2cncc(c2)O1 (stereo not shown) [Example 161, 8,10-dimethyl-7,14-dioxa-4,10,19,20-tetraazatetracyclo [13.5.2.1^2,6.0^18,21]tricosa-1(20),2,4,6(23),15,17,21-heptaene] | < 100
10 | C[C@@H]1CCNC(=O)COc2cncc(c2)-c2n[nH]c3ccc(cc23)O1 [Example 162, (13R)-13-methyl-7,14-dioxa-4,10,19,20-tetraazatetracyclo[13.5.2.1^2,6.0^18,21]tricosa-1(20),2,4,6(23),15(22),16,18(21)-heptaen-9-one] | < 100
11 | C[C@@H]1CCNCCOc2cncc(c2)-c2n[nH]c3ccc(cc23)O1 [Example 163, (13R)-13-methyl-7,14-dioxa-4,10,19,20-tetraazatetracyclo[13.5.2.1^2,6.0^18,21]tricosa-1(20),2,4,6(23),15(22),16,18(21)-heptaene] | < 10
12 | O=C1NCCCOc2ccc3[nH]nc(c3c2)-c2cccc(c2)[C@H]2C[C@H]12 [Example 164, (7S,9S)-15-oxa-11,20,21-triazapentacyclo[14.5.2.1^2,6.0^7,9.0^19,22] tetracosa-1(21),2(24),3,5,16(23),17,19(22)-heptaen-10-one] | < 100
13 | c1cc2cc(c1)[C@H]1C[C@@H]1CNCCCOc1ccc3[nH]nc-2c3c1 [Example 165, (7S,9S)-15-oxa-11,20,21-triazapentacyclo[14.5.2.1^2,6.0^7,9.0^19,22]tetracosa-1(21),2(24),3,5,16(23),17,19(22)-heptaene] | < 1000
14 | O=C1CCc2cccc(c2)-c2n[nH]c3ccc(cc23)OCCCN1 [Example 166, 14-oxa-10,19,20-triazatetracyclo[13.5.2.1^2,6.0^18,21]tricosa-1(20),2(23),3,5,15(22),16,18(21)-heptaen-9-one] | < 10
15 | c1cc2cc(c1)-c1n[nH]c3ccc(cc13)OCCCNCCC2 [Example 167, 14-oxa-10,19,20-triazatetracyclo[13.5.2.1^2,6.0^18,21]tricosa-1(20),2(23),3,5,15(22),16,18(21)-heptaene] | < 10
16 | C[C@@H]1COc2ccc3[nH]nc(c3c2)-c2cccc(c2)OCC(=O)N[C@H]1C [Example 168, (11S,12S)-11,12-dimethyl-7,14-dioxa-10,19,20-triazatetracyclo[13.5.2.1^2,6.0^18,21]tricosa-1(20),2(23),3,5,15(22),16,18(21)-heptaen-9-one] | < 100
17 | C[C@@H]1COc2ccc3[nH]nc(c3c2)-c2cccc(c2)OCCN[C@H]1C [Example 169, (11S,12S)-11,12-dimethyl-7,14-dioxa-10,19,20-triazatetracyclo[13.5.2.1^2,6.0^18,21]tricosa-1(20),2(23),3,5,15(22),16,18(21)-heptaene] | < 100
18 | COC1CNC(=O)COc2cccc(c2)-c2n[nH]c3ccc(cc23)OC1 (stereo not shown) [Example 170, 12-methoxy-7,14-dioxa-10,19,20-triazatetracyclo[13.5.2.1^2,6.0^18,21]tricosa-1(20),2(23),3,5,15,17,21-heptaen-9-one] | < 100
19 | COC1CNCCOc2cccc(c2)-c2n[nH]c3ccc(cc23)OC1 (stereo not shown) [Example 171, 12-methoxy-7,14-dioxa-10,19,20-triazatetracyclo[13.5.2.1^2,6.0^18,21]tricosa-1(20),2(23),3,5,15,17,21-heptaene] | < 100

Results, then the compound that gave them:

Row | IC50 [nM] | Structure (SMILES)
20 | < 10 | c1cc2cc(c1)-c1n[nH]c3ccc(cc13)OCCCNCCO2 [Example 135, 7,14-dioxa-10,19,20-triazatetracyclo[13.5.2.1^2,6.0^18,21]tricosa-1(20),2(23),3,5,15(22),16,18(21)-heptaene]
21 | < 10 | O=C1COc2cncc(c2)-c2n[nH]c3ccc(cc23)OCCCN1 [Example 136, 7,14-dioxa-4,10,19,20-tetraazatetracyclo[13.5.2.1^2,6.0^18,21]tricosa-1(20),2,4,6(23),15,17,21-heptaen-9-one]
22 | < 10 | c1cc2[nH]nc3c2cc1OCCCNCCOc1cncc-3c1 [Example 137, 7,14-dioxa-4,10,19,20-tetraazatetracyclo[13.5.2.1^2,6.0^18,21]tricosa-1(20),2,4,6(23),15,17,21-heptaene]
23 | < 10 | Fc1ccc2cc1OCCNCCCOc1ccc3[nH]nc-2c3c1 [Example 139, 5-fluoro-7,14-dioxa-10,19,20-triazatetracyclo[13.5.2.1^2,6.0^18,21]tricosa-1(20),2,4,6(23),15,17,21-heptaene]
24 | < 10 | Cc1ccc2cc1OCC(=O)NCCCOc1ccc3[nH]nc-2c3c1 [Example 140, 5-methyl-7,14-dioxa-10,19,20-triazatetracyclo[13.5.2.1^2,6.0^18,21] tricosa-1(20),2,4,6(23),15,17,21-heptaen-9-one]
25 | < 10 | Cc1ccc2cc1OCCNCCCOc1ccc3[nH]nc-2c3c1 [Example 141, 5-methyl-7,14-dioxa-10,19,20-triazatetracyclo[13.5.2.1^2,6.0^18,21] tricosa-1(20),2,4,6(23),15,17,21-heptaene]
26 | < 10 | O=C1COc2cc(Cl)cc(c2)-c2n[nH]c3ccc(cc23)OCCCN1 [Example 142, 4-chloro-7,14-dioxa-10,19,20-triazatetracyclo[13.5.2.1^2,6.0^18,21]tricosa-1(20),2,4,6(23),15,17,21-heptaen-9-one]
27 | < 10 | Clc1cc2cc(c1)-c1n[nH]c3ccc(cc13)OCCCNCCO2 [Example 143, 4-chloro-7,14-dioxa-10,19,20-triazatetracyclo[13.5.2.1^2,6.0^18,21]tricosa-1(20),2,4,6(23),15,17,21-heptaene]
28 | < 10 | Cc1cc2cc(c1)-c1n[nH]c3ccc(cc13)OCCCNC(=O)CO2 [Example 144, 4-methyl-7,14-dioxa-10,19,20-triazatetracyclo[13.5.2.1^2,6.0^18,21]tricosa-1(20),2(23),3,5,15,17,21-heptaen-9-one]
29 | < 10 | Cc1cc2cc(c1)-c1n[nH]c3ccc(cc13)OCCCNCCO2 [Example 145, 4-methyl-7,14-dioxa-10,19,20-triazatetracyclo[13.5.2.1^2,6.0^18,21]tricosa-1(20),2(23),3,5,15,17,21-heptaene]
30 | < 10 | O=C1COc2cc(cc(C3CCOCC3)c2)-c2n[nH]c3ccc(cc23)OCCCN1 [Example 146, 4-(oxan-4-yl)-7,14-dioxa-10,19,20-triazatetracyclo[13.5.2.1^2,6.0^18,21]tricosa-1(20),2(23),3,5,15,17,21-heptaen-9-one]
31 | < 10 | c1cc2[nH]nc3c2cc1OCCCNCCOc1cc-3cc(C2CCOCC2)c1 [Example 147, 4-(oxan-4-yl)-7,14-dioxa-10,19,20-triazatetracyclo[13.5.2.1^2,6.0^18,21]tricosa-1(20),2(23),3,5,15,17,21-heptaene]
32 | < 10 | O=C1COc2cc(cc(C3CCCOC3)c2)-c2n[nH]c3ccc(cc23)OCCCN1 (stereo not shown) [Example 148, 4-(oxan-3-yl)-7,14-dioxa-10,19,20-triazatetracyclo[13.5.2.1^2,6.0^18,21]tricosa-1(20),2(23),3,5,15,17,21-heptaen-9-one]
33 | < 10 | c1cc2[nH]nc3c2cc1OCCCNCCOc1cc-3cc(C2CCCOC2)c1 (stereo not shown) [Example 149, 4-(oxan-3-yl)-7,14-dioxa-10,19,20-triazatetracyclo[13.5.2.1^2,6.0^18,21]tricosa-1(20),2(23),3,5,15,17,21-heptaene]
34 | < 10 | c1cc2[nH]nc3c2cc1OCCCNCC1(CC1)Oc1cncc-3c1 [Example 157, 7′,14′-dioxa-4′,10′,19′,20′-tetraazaspiro[cyclopropane-1,8′-tetracyclo[13.5.2.1^2,6.0^18,21]tricosane]-1′(20′),2′(23′),3′,5′,15′,17′,21′-heptaene]
